Measured values taken from US20080194653A1, “Therapeutic Agent For Solid Tumor” (KYOWA HAKKO KOGYO CO., LTD., priority 2005, published 2008).
Where a name gives a salt, the structure may show the parent alone.

How the values were obtained:
[1] = molecular target: T1, recombinant human Eg5 motor domain protein (Homo sapiens, UniProt P52732); assay: Eg5 enzyme inhibition test (ATPase activity); assay type: biochemical; conditions: for IC50: 30° C., 30 minutes, absorbance at 360 nm, read-out: Inhibition ratios (IC50) on the ATPase activity of Eg5
T1 construct: A plasmid expressing the motor domain of human Eg5 was constructed; made in house; host or cells: Escherichia coli BL21 (DE3)
T1 sequence (P52732 18-359 limits assumed): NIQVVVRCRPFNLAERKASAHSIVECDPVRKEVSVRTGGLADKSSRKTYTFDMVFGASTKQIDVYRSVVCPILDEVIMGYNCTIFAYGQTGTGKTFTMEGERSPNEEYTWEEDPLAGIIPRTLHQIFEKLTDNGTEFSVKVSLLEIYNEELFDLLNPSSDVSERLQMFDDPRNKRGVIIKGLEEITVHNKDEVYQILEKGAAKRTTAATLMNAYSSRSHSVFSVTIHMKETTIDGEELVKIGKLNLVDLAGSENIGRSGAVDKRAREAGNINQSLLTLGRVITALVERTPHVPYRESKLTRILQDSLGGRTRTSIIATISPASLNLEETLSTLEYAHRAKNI
Procedure: A recombinant human Eg5 motor domain protein was prepared by referring to the literature [Biochemistry, Vol. 35, p. […] A plasmid expressing the motor domain of human Eg5 was constructed, and transformed into Escherichia coli BL21 (DE3). The transformant was cultured at 25° C., and when the OD600 reached 0.74, isopropyl-β-D-thiogalactoside was added at a final concentration of 0.5 mmol/L. The transformant was further cultured for 4 hours, and then the culture medium was centrifuged to collect the cells. The cells were suspended in a buffer and ultrasonicated, and then the sonicated solution was centrifuged to recover the supernatant. The supernatant was purified by cation exchange column chromatography to obtain a partially purified sample. Furthermore, the partially purified sample was purified by gel filtration column chromatography to obtain a finally purified sample.
Measurement of the ATPase activity of Eg5 was carried out by referring to the literatures [EMBO Journal, Vol. 13, p. […] Solution A was dispensed into each well of a 96-well plate as 45 μL portions. Solution B was used to serially dilute a test compound. The diluted test compound solutions in a volume of 30 μL were mixed with Solution A added beforehand in each well of the 96-well plate to start the enzymatic reaction. The enzymatic reaction was performed at 30° C. for 30 minutes. […] The relative activity was calculated to calculate IC50 value.

[2] = system: human colon cancer HCT 116 cells; assay: Cell growth inhibition test against colon cancer cells (XTT); assay type: cell-based; conditions: read-out: GI50 value (concentration of 50% growth inhibition), 72 hours
Procedure: (§1) As cancer cell lines, human lung cancer A549 cells (ATCC No. CCL-185), human ovarian cancer SK-OV-3 cells (ATCC No. HTB-77), and human colon cancer HCT 116 cells (ATCC No. CCL-247) were used. For the culture of A549 cells, Nutrient Mixture F-12K medium (Invitrogen, catalog No. 21127-022) containing 10% fetal bovine serum (Invitrogen, catalog No. 10099-141), 100 units/mL penicillin (Invitrogen, catalog No. 15140-122), and 100 μg/mL streptomycin (Invitrogen, catalog No. 15140-122) was used. For the culture of SK-OV-3 cells and HCT 116 cells, McCoy's 5A medium (Invitrogen, catalog No. 16600-082) containing 10% fetal bovine serum (Invitrogen, catalog No. 10099-141), 100 units/mL penicillin (Invitrogen, catalog No. 15140-122), and 100 μg/mL streptomycin (Invitrogen, catalog No. 15140-122) was used. The cells were cultured at 37° C. in a 5% carbon dioxide atmosphere.
(§2) A549 cells (1000 cells/well), SK-OV-3 cells (2000 cells/well), or HCT 116 cells (1000 cells/well) were seeded in each well of 96-well plates (Nunc, catalog No. 167008), and cultured overnight. Test compounds diluted stepwise were added, and the cells were further cultured for 72 hours (final volume: 100 μL/well). Fifty μL XTT labeling mixture of Cell Proliferation Kit II (XTT) (Roche Diagnostics, catalog No. 1465015) was added to each well, and the plates were incubated at 37° C. After 1 to 3 hours, absorbance at 490 nm (reference wavelength: 655 nm) was measured with a plate reader (Molecular Device, SpectraMax 340PC^384). Growth ratios of the cells in the wells treated with the test compounds were calculated based on the growth ratio of the cells in the control well treated with solvent (dimethyl sulfoxide (DMSO)) for 72 hours, which was defined as 100%.

[3] = system: human lung cancer A549 cells; assay: Cell growth inhibition test against lung cancer cells (XTT); assay type: cell-based; conditions: read-out: GI50 value (concentration of 50% growth inhibition), 72 hours
Procedure: as §1, §2

[4] = system: human ovarian cancer SK-OV-3 cells; assay: Cell growth inhibition test against ovarian cancer cells (XTT); assay type: cell-based; conditions: read-out: GI50 value (concentration of 50% growth inhibition), 72 hours
Procedure: as §1, §2

[5] = system: human pancreatic cancer MIA PaCa-2 cells; assay: Cell growth inhibition test against pancreatic cancer cells (XTT); assay type: cell-based; conditions: read-out: GI50 value (concentration of 50% growth inhibition)
Procedure: as §2
(§3) As cancer cell lines, human pancreatic cancer MIA PaCa-2 cells (JCRB No. 0070), human cervical cancer HeLa cells (ATCC No. CCL-2), human breast cancer MDA-MB-468 cells (ATCC No. HTB-132), human prostate cancer DU 145 cells (ATCC No. HTB-81), human skin cancer SK-MEL-28 cells (ATCC No. HTB-72), human head and neck cancer KB cells (JCRB No. 9027), human renal cancer 786-0 cells (ATCC No. CRL-1932), and human liver cancer Hep G2 cells (ATCC No. HB-8065) were used. The cells were cultured at 37° C. in a 5% carbon dioxide atmosphere (except for the human breast cancer MDA-MB-468 cells, which were cultured under the condition at 37° C.) by using the mediums mentioned below, respectively.
(§4) In the same manner as that in Test Example 1, the cells were seeded (500 to 4000 cells/well, respectively) in each well of 96-well plates (Nunc, catalog No. 167008), and growth ratios of the cells treated with test compounds were calculated. The measurement of absorbance was performed at 1.5 to 3 hours after the addition of the XTT labeling mixture.

[6] = system: human cervical cancer HeLa cells; assay: Cell growth inhibition test against cervical cancer cells (XTT); assay type: cell-based; conditions: read-out: GI50 value (concentration of 50% growth inhibition)
Procedure: as §2, §3, §4

[7] = system: human breast cancer MDA-MB-468 cells; assay: Cell growth inhibition test against breast cancer cells (XTT); assay type: cell-based; conditions: read-out: GI50 value (concentration of 50% growth inhibition)
Procedure: as §2, §3, §4

[8] = system: human prostate cancer DU 145 cells; assay: Cell growth inhibition test against prostate cancer cells (XTT); assay type: cell-based; conditions: read-out: GI50 value (concentration of 50% growth inhibition)
Procedure: as §2, §3, §4

[9] = system: human skin cancer SK-MEL-28 cells; assay: Cell growth inhibition test against skin cancer cells (XTT); assay type: cell-based; conditions: read-out: GI50 value (concentration of 50% growth inhibition)
Procedure: as §2, §3, §4

[10] = system: human head and neck cancer KB cells; assay: Cell growth inhibition test against head and neck cancer cells (XTT); assay type: cell-based; conditions: read-out: GI50 value (concentration of 50% growth inhibition)
Procedure: as §2, §3, §4

[11] = system: human renal cancer 786-0 cells; assay: Cell growth inhibition test against renal cancer cells (XTT); assay type: cell-based; conditions: read-out: GI50 value (concentration of 50% growth inhibition)
Procedure: as §2, §3, §4

[12] = system: human liver cancer Hep G2 cells; assay: Cell growth inhibition test against liver cancer cells (XTT); assay type: cell-based; conditions: HepG2, read-out: GI50 value (concentration of 50% growth inhibition)
Procedure: as §2, §3, §4

| melting point [°C] | GI50 [2] [µM] | GI50 [3] [µM] | GI50 [4] [µM] | GI50 [5] [µM] | GI50 [6] [µM] | GI50 [7] [µM] | GI50 [8] [µM] | GI50 [9] [µM] | GI50 [10] [µM] | GI50 [11] [µM] | GI50 [12] [µM] | IC50 [1] [µM] | SMILES | Inhibition of the ATPase activity of Eg5 (in words) [1] |
| --- | --- | --- | --- | --- | --- | --- | --- | --- | --- | --- | --- | --- | --- | --- |
| – | < 0.1 | < 10 | < 10 | < 10 | < 10 | < 10 | < 10 | < 10 | < 10 | < 10 | – | < 0.1 | CCC(=O)N1N=C(NC(=O)C(C)(C)C)SC1(CCNS(C)(=O)=O)c1ccccc1 (single isomer, unassigned; (-)) [Compound b, (−)-N-[5-(2-Methanesulfonylaminoethyl)-5-phenyl-4-propionyl-4,5-dihydro-1,3,4-thiadiazol-2-yl]-2,2-dimethylpropanamide] | inhibited the ATPase activity of Eg5 in a concentration-dependent manner |
| 107 to 110 | – | – | – | – | – | – | – | – | – | – | – | – | CC(C)(C)C(=O)N1N=C(N2CCCC2=O)SC1(CCNS(C)(=O)=O)c1ccccc1 (single isomer, unassigned; (-)) [Compound c, (−)-N-{2-[3-(2,2-Dimethylpropionyl)-5-(2-oxopyrrolidin-1-yl)-2-phenyl-2,3-dihydro-1,3,4-thiadiazol-2-yl]ethyl}methanesulfonamide] | – |
| 137 to 140 | – | – | – | – | – | – | – | – | – | – | – | – | CC(=O)N1N=C(N2CCCC2=O)SC1(CCNS(C)(=O)=O)c1ccccc1 (stereo not shown) [Compound g, N-{2-[3-Acetyl-5-(2-oxopyrrolidin-1-yl)-2-phenyl-2,3-dihydro-1,3,4-thiadiazol-2-yl]ethyl}methanesulfonamide] | – |
| – | < 0.1 | < 10 | < 10 | – | – | – | – | – | – | – | – | – | CC(C)(C)C(=O)NC1=NN(C(=O)C(C)(C)C)C(CN)(c2ccccc2)S1 (stereo not shown) [Compound j, N-[5-Aminomethyl-4-(2,2-dimethylpropionyl)-5-phenyl-4,5-dihydro-1,3,4-thiadiazol-2-yl]-2,2-dimethylpropanamide] | – |

The remaining lines, values behind:

| SMILES | melting point [°C] | GI50 [2] [µM] | GI50 [3] [µM] | GI50 [4] [µM] | GI50 [5] [µM] | GI50 [6] [µM] | GI50 [7] [µM] | GI50 [8] [µM] | GI50 [9] [µM] | GI50 [10] [µM] | GI50 [11] [µM] | GI50 [12] [µM] | IC50 [1] [µM] | Inhibition of the ATPase activity of Eg5 (in words) [1] |
| --- | --- | --- | --- | --- | --- | --- | --- | --- | --- | --- | --- | --- | --- | --- |
| CC(C)(C)C(=O)NC1=NN(C(=O)C(C)(C)C)C(CN)(c2ccccc2)S1 (stereo not shown) (as salt: hydrochloride) [Compound j, N-[5-Aminomethyl-4-(2,2-dimethylpropionyl)-5-phenyl-4,5-dihydro-1,3,4-thiadiazol-2-yl]-2,2-dimethylpropanamide] | 175 to 182 | – | – | – | – | – | – | – | – | – | – | – | – | – |
| CCNCCS(=O)(=O)NCCC1(c2ccccc2)SC(NC(=O)C(C)(C)C)=NN1C(=O)C(C)(C)C (racemic) [Compound 14, N-{4-(2,2-Dimethylpropionyl)-5-[2-(2-ethylaminoethanesulfonylamino)ethyl]-5-phenyl-4,5-dihydro-1,3,4-thiadiazol-2-yl}-2,2-dimethylpropanamide] | – | – | – | – | – | – | – | – | – | – | – | – | – | inhibited the ATPase activity of Eg5 in a concentration-dependent manner |
| CCNCCS(=O)(=O)NCCC1(c2ccccc2)SC(NC(=O)C(C)(C)C)=NN1C(=O)C(C)(C)C (single isomer, unassigned) [Compound i, N-{4-(2,2-Dimethylpropionyl)-5-[2-(2-ethylaminoethanesulfonylamino)ethyl]-5-phenyl-4,5-dihydro-1,3,4-thiadiazol-2-yl}-2,2-dimethylpropanamide] | – | < 0.1 | < 10 | < 10 | < 10 | < 10 | < 10 | < 10 | < 10 | < 10 | < 10 | < 10 | < 0.1 | inhibited the ATPase activity of Eg5 in a concentration-dependent manner |
| CC(=O)N1N=C(NC(=O)C(C)(C)C)SC1(CCNS(C)(=O)=O)c1ccccc1 (single isomer, unassigned; (-)) [Compound f, (−)-N-[4-Acetyl-5-(2-methanesulfonylaminoethyl)-5-phenyl-4,5-dihydro-1,3,4-thiadiazol-2-yl]-2,2-dimethylpropanamide] | 187 to 190 | – | – | – | – | – | – | – | – | – | – | – | – | – |
| CC(=O)N1N=C(N2CCCCC2=O)SC1(CCNS(C)(=O)=O)c1ccccc1 (single isomer, unassigned; (-)) [Compound h, (−)-N-{2-[3-Acetyl-5-(2-oxopiperidino)-2-phenyl-2,3-dihydro-1,3,4-thiadiazol-2-yl]ethyl}methanesulfonamide] | 169 to 171 | < 0.1 | < 10 | < 10 | < 10 | < 10 | < 10 | < 10 | < 10 | < 10 | < 10 | – | < 0.1 | inhibited the ATPase activity of Eg5 in a concentration-dependent manner |
| CCNCCS(=O)(=O)NCC1(c2ccccc2)SC(NC(=O)C(C)(C)C)=NN1C(=O)C(C)(C)C (single isomer, unassigned; (-)) [Compound l, (−)-N-[4-(2,2-Dimethylpropionyl)-5-(2-ethylaminoethanesulfonylamino-methyl)-5-phenyl-4,5-dihydro-1,3,4-thiadiazol-2-yl]-2,2-dimethylpropanamide] | – | < 0.1 | < 10 | < 10 | < 10 | < 10 | – | < 10 | < 10 | < 10 | < 10 | < 10 | < 0.1 | inhibited the ATPase activity of Eg5 in a concentration-dependent manner |
